Experimental data from US11807650B2, “NMDA receptor modulators and uses thereof” (Novartis AG, priority 2016, dated 2023).

Target: T1, human GRIN1 (transcript variant NR1-3) and GRIN2D expressed in Xenopus oocytes (Homo sapiens, UniProt O15399)
T1 construct: GenScript (GRIN2D synthesis) SC115601; host or cells: Xenopus oocytes injected with cRNA (1 GluN1 : 2 GluN2)
Assay: NR2D oocyte potentiation assay (two-electrode voltage clamp)
Type: cell-based
Settings: 10 uM test compound; glutamate and glycine 10 μM each; holding potential −40 mV
In short: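 Xenopus oocytes were defolliculated with collagenase, then injected with 50 nL of cRNA encoding human GluN1 (NR1-3 variant) and GluN2D mixed 1:2 and kept 72 h at 16° C. Two-electrode voltage clamp at −40 mV recorded currents; after 10 μM glutamate plus 10 μM glycine reached plateau, test compound was added until a new plateau formed.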

T1 sequence (O15399 28-1336, other chains not shown): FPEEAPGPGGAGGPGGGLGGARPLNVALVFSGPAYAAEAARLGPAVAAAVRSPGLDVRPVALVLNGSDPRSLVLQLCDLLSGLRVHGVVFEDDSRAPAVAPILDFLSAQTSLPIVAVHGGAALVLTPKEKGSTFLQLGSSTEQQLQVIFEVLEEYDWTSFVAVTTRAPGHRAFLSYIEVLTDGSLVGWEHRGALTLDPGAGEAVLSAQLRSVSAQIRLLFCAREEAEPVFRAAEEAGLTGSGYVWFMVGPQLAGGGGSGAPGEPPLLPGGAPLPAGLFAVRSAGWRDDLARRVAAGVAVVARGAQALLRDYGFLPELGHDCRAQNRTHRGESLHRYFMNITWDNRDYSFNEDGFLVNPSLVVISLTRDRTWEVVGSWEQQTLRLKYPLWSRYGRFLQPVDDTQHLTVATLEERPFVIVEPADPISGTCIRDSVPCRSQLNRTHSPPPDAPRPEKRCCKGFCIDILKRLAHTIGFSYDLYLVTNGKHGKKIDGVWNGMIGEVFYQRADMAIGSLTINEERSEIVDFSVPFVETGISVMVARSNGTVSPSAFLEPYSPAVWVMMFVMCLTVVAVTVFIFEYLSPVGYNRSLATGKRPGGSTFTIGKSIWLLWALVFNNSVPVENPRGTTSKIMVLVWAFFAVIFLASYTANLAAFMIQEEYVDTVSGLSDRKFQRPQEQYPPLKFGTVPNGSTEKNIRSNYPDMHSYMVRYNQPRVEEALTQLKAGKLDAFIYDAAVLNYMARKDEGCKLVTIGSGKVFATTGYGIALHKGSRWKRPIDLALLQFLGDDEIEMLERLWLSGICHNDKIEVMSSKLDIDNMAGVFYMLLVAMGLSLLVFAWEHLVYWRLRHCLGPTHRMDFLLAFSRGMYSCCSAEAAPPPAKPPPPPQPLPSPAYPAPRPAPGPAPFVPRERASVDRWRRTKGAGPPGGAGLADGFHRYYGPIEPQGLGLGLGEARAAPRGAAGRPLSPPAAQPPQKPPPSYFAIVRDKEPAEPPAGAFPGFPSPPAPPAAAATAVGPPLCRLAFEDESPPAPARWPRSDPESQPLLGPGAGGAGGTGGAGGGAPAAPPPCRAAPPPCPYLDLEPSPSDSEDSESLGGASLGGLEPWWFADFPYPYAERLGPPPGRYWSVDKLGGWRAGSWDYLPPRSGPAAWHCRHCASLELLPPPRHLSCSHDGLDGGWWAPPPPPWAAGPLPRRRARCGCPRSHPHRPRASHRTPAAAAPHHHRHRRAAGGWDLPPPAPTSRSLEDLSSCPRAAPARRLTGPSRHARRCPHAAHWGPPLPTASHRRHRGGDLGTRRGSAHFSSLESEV

activation at 10 µM	NR2D Oocyte % Potentiation @ 10 uM	SMILES
> 1000%	–	CC(=O)NCC1CSc2nc(-c3cnc(C(C)(C)C)c(F)c3)c(C#N)c(=O)n2C1 (centres unmarked) [Example 146, N-((8-(6-(tert-butyl)-5-fluoropyridin-3-yl)-7-cyano-6-oxo-3,4-dihydro-2H,6H-pyrimido[2,1-b][1,3]thiazin-3-yl)methyl)acetamide]
> 1000%	–	CCOC(=O)NCC1CSc2nc(-c3cnc(C(C)(C)C)c(F)c3)c(C#N)c(=O)n2C1 (centres unmarked) [Example 147, ethyl ((8-(6-(tert-butyl)-5-fluoropyridin-3-yl)-7-cyano-6-oxo-3,4-dihydro-2H,6H-pyrimido[2,1-b][1,3]thiazin-3-yl)methyl)carbamate]
> 1000%	–	CC(C)(C)c1ncc(-c2nc3n(c(=O)c2C#N)C[C@@H](CO)CS3)cc1F [Example 157, (S)-8-(6-(tert-butyl)-5-fluoropyridin-3-yl)-3-(hydroxymethyl)-6-oxo-3,4-dihydro-2H,6H-pyrimido[2,1-b][1,3]thiazine-7-carbonitrile]
> 1000%	–	CC(C)(C)c1ncc(-c2nc3n(c(=O)c2C#N)C[C@H](CO)CS3)cc1F [Example 158, (R)-8-(6-(tert-butyl)-5-fluoropyridin-3-yl)-3-(hydroxymethyl)-6-oxo-3,4-dihydro-2H,6H-pyrimido[2,1-b][1,3]thiazine-7-carbonitrile]
10 to 100%	–	CC(C)(C)c1ncc(-c2nc3n(c(=O)c2C#N)CC(CN2CCCC2)CS3)cc1F (centres unmarked) [Example 159, 8-(6-(tert-butyl)-5-fluoropyridin-3-yl)-6-oxo-3-(pyrrolidin-1-ylmethyl)-3,4-dihydro-2H,6H-pyrimido[2,1-b][1,3]thiazine-7-carbonitrile]
10 to 100%	–	CN(C)CC1CSc2nc(-c3cnc(C(C)(C)C)c(F)c3)c(C#N)c(=O)n2C1 (centres unmarked) [Example 160, 8-(6-(tert-butyl)-5-fluoropyridin-3-yl)-3-((dimethylamino)methyl)-6-oxo-3,4-dihydro-2H,6H-pyrimido[2,1-b][1,3]thiazine-7-carbonitrile]
100 to 500%	–	CN(C)C(=O)C1CSc2nc(-c3cnc(C(C)(C)C)c(F)c3)c(C#N)c(=O)n2C1 (centres unmarked) [Example 161, 8-(6-(tert-butyl)-5-fluoropyridin-3-yl)-7-cyano-N,N-dimethyl-6-oxo-3,4-dihydro-2H,6H-pyrimido[2,1-b][1,3]thiazine-3-carboxamide]
100 to 500%	–	CC(C)(C)c1ncc(-c2nc3n(c(=O)c2C#N)CC(C(=O)N2CCOCC2)CS3)cc1F (centres unmarked) [Example 162, 8-(6-(tert-butvl)-5-fluoropyndin-3-yl)-3-(morpholine-4-carbonyl)-6-oxo-3,4-dihydro-2H,6H-pyrimido[2,1-b][1,3]thiazine-7-carbonitrile]
> 1000%	–	CNC(=O)C1CSc2nc(-c3cnc(C(C)(C)C)c(F)c3)c(C#N)c(=O)n2C1 (centres unmarked) [Example 163, 8-(6-(tert-butyl)-5-fluoropyridin-3-yl)-7-cyano-N-methyl-6-oxo-3,4-dihydro-2H,6H-pyrimido[2,1-b][1,3]thiazine-3-carboxamide]
10 to 100%	–	CSCC1COc2nc(-c3cnc(C(C)(C)C)c(F)c3)c(C#N)c(=O)n2C1 (centres unmarked) [Example 164, 8-(6-(tert-butyl)-5-fluoropyridin-3-yl)-3-((methylthio)methyl)-6-oxo-3,4-dihydro-2H,6H-pyrimido[2,1-b][1,3]oxazine-7-carbonitrile]
> 1000%	–	COCSCC1COc2nc(-c3cnc(C(C)(C)C)c(F)c3)c(C#N)c(=O)n2C1 (centres unmarked) [Example 165, 8-(6-tert-butyl-5-fluoropyridin-3-yl)-3-{[(methoxymethyl)sulfanyl]methyl}-6-oxo-2H,3H, 4H,6H-pyrimido [2,1-b][1,3] oxazine-7-carbonitrile]
> 1000%	–	COC[C@H]1CSc2nc(-c3cnc(C(C)(C)C)c(F)c3)c(C#N)c(=O)n2C1 [Example 166, (S)-8-(6-(tert-butyl)-5-fluoropyridin-3-yl)-3-(methoxymethyl)-6-oxo-3,4-dihydro-2H,6H-pyrimido[2,1-b][1,3]thiazine-7-carbonitrile]
> 1000%	–	COC[C@@H]1CSc2nc(-c3cnc(C(C)(C)C)c(F)c3)c(C#N)c(=O)n2C1 [Example 167, (R)-8-(6-(tert-butyl)-5-fluoropyridin-3-yl)-3-(methoxymethyl)-6-oxo-3,4-dihydro-2H,6H-pyrimido[2,1-b][1,3]thiazine-7-carbonitrile]
500 to 1000%	–	CC(=O)NC[C@H]1CSc2nc(-c3cnc(C(C)(C)C)c(F)c3)c(C#N)c(=O)n2C1 [Example 168, (R)-N-((8-(6-(tert-butyl)-5-fluoropyridin-3-yl)-7-cyano-6-oxo-3,4-dihydro-2H,6H-pyrimido[2,1-b][1,3]thiazin-3-yl)methyl)acetamide]

Further lines, the compound ahead of its results:

SMILES	activation at 10 µM	NR2D Oocyte % Potentiation @ 10 uM
CC1CSc2nc(-c3ccc(C45CC(C4)C5)nc3)c(C#N)c(=O)n2C1 (centres unmarked) [Example 148, 8-(6-(bicyclo[1.1.1]pentan-1-yl)pyridin-3-yl)-3-methyl-6-oxo-3,4-dihydro-2H,6H-pyrimido[2,1-b][1,3]thiazine-7-carbonitrile]	100 to 500%	–
CC1CSc2nc(-c3cccnc3C34CC(C3)C4)c(C#N)c(=O)n2C1 (centres unmarked) [Example 149, 8-(2-(bicyclo[1.1.1]pentan-1-yl)pyridin-3-yl)-3-methyl-6-oxo-3,4-dihydro-2H,6H-pyrimido[2,1-b][1,3]thiazine-7-carbonitrile]	< 10%	–
CC1CSc2nc(-c3ccc(C45CC(C4)C5)nc3C34CC(C3)C4)c(C#N)c(=O)n2C1 (centres unmarked) [Example 150, 8-(2,6-di(bicyclo[1.1.1]pentan-1-yl)pyridin-3-yl)-3-methyl-6-oxo-3,4-dihydro-2H,6H-pyrimido[2,1-b][1,3]thiazine-7-carbonitrile]	–	Inhibitor
CC1CSc2nc(-c3ccc(C(C)(C)CF)nc3)c(C#N)c(=O)n2C1 (centres unmarked) [Example 151, 8-(6-(1-fluoro-2-methylpropan-2-yl)pyridin-3-yl)-3-methyl-6-oxo-3 4-dihydro-2H,6H-pyrimido[2,1-b][1,3]thiazine-7-carbonitrile]	500 to 1000%	–
CC(C)(CF)c1ccc(-c2nc3n(c(=O)c2C#N)CCCS3)cn1 [Example 152, 8-(6-(1-fluoro-2-methylpropan-2-yl)pyridin-3-yl)-6-oxo-3,4-dihydro-2H,6H-pyrimido[2,1-b][1,3]thiazine-7-carbonitrile]	100 to 500%	–
CC1CSc2nc(-c3ccc(C4(C)COC4)nc3)c(C#N)c(=O)n2C1 (centres unmarked) [Example 153, 3-methyl-8-(6-(3-methyloxetan-3-yl)pyridin-3-yl)-6-oxo-3,4-dihydro-2H,6H-pyrimido[2,1-b][1,3]thiazine-7-carbonitrile]	100 to 500%	–
CC1(c2ccc(-c3nc4n(c(=O)c3C#N)CCCS4)cn2)COC1 [Example 154, 8-(6-(3-methyloxetan-3-yl)pyridin-3-yl)-6-oxo-3,4-dihydro-2H,6H-pyrimido[2,1-b][1,3]thiazine-7-carbonitrile]	10 to 100%	–
CC1CSc2nc(-c3ccc(C(C)(CF)CF)nc3)c(C#N)c(=O)n2C1 (centres unmarked) [Example 155, 8-(6-(1,3-difluoro-2-methylpropan-2-yl)pyridin-3-yl)-3-methyl-6-oxo-3,4-dihydro-2H,6H-pyrimido[2,1-b][1,3]thiazine-7-carbonitrile]	100 to 500%	–
CC(CF)(CF)c1ccc(-c2nc3n(c(=O)c2C#N)CCCS3)cn1 [Example 156, 8-(6-(1,3-difluoro-2-methylpropan-2-yl)pyridin-3-yl)-6-oxo-3,4-dihydro-2H,6H-pyrimido[2,1-b][1,3]thiazine-7-carbonitrile]	100 to 500%	–
